What was measured:
Experiment in all cases: KINOMEscan
Conditions in all cases: read-out: Percent Control
[1] = molecular target: EPHB1 (Homo sapiens, UniProt P54762)
Protocol: (§1) The kinase engagement assay (KINOMEscan®) was performed by DiscoverX assessing binding abilities toward a set of kinases.

[2] = molecular target: DYRK2 (Homo sapiens, UniProt Q92630)
Protocol: as §1

[3] = molecular target: SRC (Homo sapiens, UniProt P12931)
Protocol: as §1

[4] = molecular target: MST2 (Homo sapiens, UniProt Q13188)
Protocol: as §1

[5] = molecular target: RET(V804M) (Homo sapiens, UniProt P07949, V804M)
Protocol: as §1

[6] = molecular target: PIK3CA(Q546K) (Homo sapiens, UniProt P42336, Q546K)
Protocol: as §1

[7] = molecular target: EPHB6 (Homo sapiens, UniProt O15197)
Protocol: as §1

[8] = molecular target: ZAP70 (Homo sapiens, UniProt P43403)
Protocol: as §1

[9] = molecular target: ABL1(Q252H)-phosphorylated (Homo sapiens, UniProt P00519, Q252H)
Protocol: as §1

[10] = molecular target: YANK2 (Homo sapiens, UniProt Q9NY57)
Protocol: as §1

[11] = molecular target: FLT3(K663Q) (Homo sapiens, UniProt P36888, K663Q)
Protocol: as §1

[12] = molecular target: JNK3 (Homo sapiens, UniProt P53779)
Protocol: as §1

[13] = molecular target: KIT(A829P) (Homo sapiens, UniProt P10721, A829P)
Protocol: as §1

[14] = molecular target: TNK1 (Homo sapiens, UniProt Q13470)
Protocol: as §1

[15] = molecular target: ABL1-nonphosphorylated (Homo sapiens, UniProt P00519)
Protocol: as §1

[16] = molecular target: JNK1 (Homo sapiens, UniProt P45983)
Protocol: as §1

[17] = molecular target: BRAF (Homo sapiens, UniProt P15056)
Protocol: as §1

[18] = molecular target: AURKC (Homo sapiens, UniProt Q9UQB9)
Protocol: as §1

[19] = molecular target: MET(Y1235D) (Homo sapiens, UniProt P08581, Y1235D)
Protocol: as §1

[20] = molecular target: RPS6KA4(Kin.Dom.2-C-terminal) (Homo sapiens, UniProt O75676)
Protocol: as §1

[21] = molecular target: ABL1(F317L)-nonphosphorylated (Homo sapiens, UniProt P00519, F317L)
Protocol: as §1

[22] = molecular target: ACVR1 (Homo sapiens, UniProt Q04771)
Protocol: as §1

[23] = molecular target: BLK (Homo sapiens, UniProt P51451)
Protocol: as §1

[24] = molecular target: CDK4-cyclinD3 (Homo sapiens, UniProt P11802)
Protocol: as §1

[25] = molecular target: MET (Homo sapiens, UniProt P08581)
Protocol: as §1

[26] = molecular target: BRSK2 (Homo sapiens, UniProt Q8IWQ3)
Protocol: as §1

[27] = molecular target: CSNK1G3 (Homo sapiens, UniProt Q9Y6M4)
Protocol: as §1

[28] = molecular target: PIK4CB (Homo sapiens, UniProt Q9UBF8)
Protocol: as §1

[29] = molecular target: EGFR(S752-1759del) (Homo sapiens, UniProt P00533, DEL752-759)
Protocol: as §1

[30] = molecular target: ABL1(F317I)-phosphorylated (Homo sapiens, UniProt P00519, F317I)
Protocol: as §1

[31] = molecular target: DAPK3 (Homo sapiens, UniProt O43293)
Protocol: as §1

[32] = molecular target: AKT3 (Homo sapiens, UniProt Q9Y243)
Protocol: as §1

[33] = molecular target: MAP4K2 (Homo sapiens, UniProt Q12851)
Protocol: as §1

[34] = molecular target: TTK (Homo sapiens, UniProt P33981)
Protocol: as §1

[35] = molecular target: NEK2 (Homo sapiens, UniProt P51955)
Protocol: as §1

[36] = molecular target: MKK7 (Homo sapiens, UniProt O14733)
Protocol: as §1

[37] = molecular target: RSK3(Kin.Dom.1-N-terminal) (Homo sapiens, UniProt Q15349)
Chain of RSK3(Kin.Dom.1-N-terminal) (Q15349 59-318 limits assumed): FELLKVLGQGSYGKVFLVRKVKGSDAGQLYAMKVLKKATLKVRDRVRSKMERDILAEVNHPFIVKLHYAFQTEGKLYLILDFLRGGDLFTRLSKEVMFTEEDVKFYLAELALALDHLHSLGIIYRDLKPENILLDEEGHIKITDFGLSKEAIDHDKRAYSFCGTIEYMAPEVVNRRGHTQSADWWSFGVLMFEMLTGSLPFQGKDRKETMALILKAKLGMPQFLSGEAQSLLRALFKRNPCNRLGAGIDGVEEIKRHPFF
Protocol: as §1

Chain of PIK3CA(Q546K) (P42336 whole entry Q546K): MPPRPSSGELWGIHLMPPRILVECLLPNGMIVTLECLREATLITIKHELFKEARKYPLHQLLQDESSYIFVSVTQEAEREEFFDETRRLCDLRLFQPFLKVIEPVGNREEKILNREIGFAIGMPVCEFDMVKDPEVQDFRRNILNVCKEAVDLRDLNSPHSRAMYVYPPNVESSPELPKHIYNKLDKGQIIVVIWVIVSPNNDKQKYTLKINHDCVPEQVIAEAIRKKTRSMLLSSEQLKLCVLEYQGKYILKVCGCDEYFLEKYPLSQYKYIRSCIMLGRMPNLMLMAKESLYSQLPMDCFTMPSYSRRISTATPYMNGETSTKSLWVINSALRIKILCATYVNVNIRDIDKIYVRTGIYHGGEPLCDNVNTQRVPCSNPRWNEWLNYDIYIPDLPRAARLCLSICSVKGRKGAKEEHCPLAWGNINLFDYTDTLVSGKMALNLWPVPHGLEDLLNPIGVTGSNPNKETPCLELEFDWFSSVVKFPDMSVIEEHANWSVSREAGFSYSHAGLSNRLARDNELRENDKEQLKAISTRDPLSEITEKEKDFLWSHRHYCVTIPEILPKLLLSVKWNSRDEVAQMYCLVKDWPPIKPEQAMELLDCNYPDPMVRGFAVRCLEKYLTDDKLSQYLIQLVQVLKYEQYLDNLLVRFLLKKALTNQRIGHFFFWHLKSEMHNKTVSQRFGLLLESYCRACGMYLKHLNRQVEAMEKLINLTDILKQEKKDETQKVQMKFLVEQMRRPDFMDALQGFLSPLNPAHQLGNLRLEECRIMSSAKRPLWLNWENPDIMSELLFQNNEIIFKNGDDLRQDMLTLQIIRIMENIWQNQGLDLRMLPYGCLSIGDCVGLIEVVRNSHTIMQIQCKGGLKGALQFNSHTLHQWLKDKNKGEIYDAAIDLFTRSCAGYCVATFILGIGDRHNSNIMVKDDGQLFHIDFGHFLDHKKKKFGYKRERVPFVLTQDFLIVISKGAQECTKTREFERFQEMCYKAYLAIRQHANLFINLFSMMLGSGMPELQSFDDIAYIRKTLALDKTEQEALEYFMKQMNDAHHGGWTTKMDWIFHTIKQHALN
Chain of JNK3 (P53779 whole entry): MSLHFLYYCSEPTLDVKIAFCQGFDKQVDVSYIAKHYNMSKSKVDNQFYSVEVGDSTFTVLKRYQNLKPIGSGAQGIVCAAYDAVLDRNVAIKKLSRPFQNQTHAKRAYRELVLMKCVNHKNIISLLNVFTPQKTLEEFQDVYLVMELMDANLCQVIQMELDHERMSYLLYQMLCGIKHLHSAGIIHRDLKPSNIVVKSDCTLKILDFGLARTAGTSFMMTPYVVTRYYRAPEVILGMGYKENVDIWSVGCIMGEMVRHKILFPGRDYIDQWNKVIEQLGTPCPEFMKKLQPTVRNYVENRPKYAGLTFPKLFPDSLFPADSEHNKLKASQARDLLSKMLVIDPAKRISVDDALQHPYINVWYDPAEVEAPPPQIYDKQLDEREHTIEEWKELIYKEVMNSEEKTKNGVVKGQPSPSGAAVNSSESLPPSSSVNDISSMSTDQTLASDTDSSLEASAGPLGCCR
Chain of BRSK2 (Q8IWQ3 whole entry): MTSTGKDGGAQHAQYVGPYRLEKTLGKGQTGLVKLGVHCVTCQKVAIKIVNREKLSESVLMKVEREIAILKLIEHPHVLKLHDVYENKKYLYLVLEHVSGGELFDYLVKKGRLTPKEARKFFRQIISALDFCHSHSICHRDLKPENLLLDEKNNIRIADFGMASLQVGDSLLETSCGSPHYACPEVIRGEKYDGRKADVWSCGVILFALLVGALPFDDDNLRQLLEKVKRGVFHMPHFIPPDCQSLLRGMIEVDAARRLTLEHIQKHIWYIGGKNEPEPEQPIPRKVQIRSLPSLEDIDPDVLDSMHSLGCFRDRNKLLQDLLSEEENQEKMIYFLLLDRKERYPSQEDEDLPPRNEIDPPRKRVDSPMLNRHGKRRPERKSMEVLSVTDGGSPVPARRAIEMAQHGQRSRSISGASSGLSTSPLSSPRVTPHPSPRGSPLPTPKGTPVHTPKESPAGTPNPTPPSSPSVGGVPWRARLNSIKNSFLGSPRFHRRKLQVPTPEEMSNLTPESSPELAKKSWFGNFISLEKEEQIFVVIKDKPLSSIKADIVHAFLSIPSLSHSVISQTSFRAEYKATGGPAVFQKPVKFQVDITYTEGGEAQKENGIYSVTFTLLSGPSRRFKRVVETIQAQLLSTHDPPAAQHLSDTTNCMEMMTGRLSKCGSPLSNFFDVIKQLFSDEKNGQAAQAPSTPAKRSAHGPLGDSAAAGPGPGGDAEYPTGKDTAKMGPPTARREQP
Chain of BRAF (P15056 whole entry): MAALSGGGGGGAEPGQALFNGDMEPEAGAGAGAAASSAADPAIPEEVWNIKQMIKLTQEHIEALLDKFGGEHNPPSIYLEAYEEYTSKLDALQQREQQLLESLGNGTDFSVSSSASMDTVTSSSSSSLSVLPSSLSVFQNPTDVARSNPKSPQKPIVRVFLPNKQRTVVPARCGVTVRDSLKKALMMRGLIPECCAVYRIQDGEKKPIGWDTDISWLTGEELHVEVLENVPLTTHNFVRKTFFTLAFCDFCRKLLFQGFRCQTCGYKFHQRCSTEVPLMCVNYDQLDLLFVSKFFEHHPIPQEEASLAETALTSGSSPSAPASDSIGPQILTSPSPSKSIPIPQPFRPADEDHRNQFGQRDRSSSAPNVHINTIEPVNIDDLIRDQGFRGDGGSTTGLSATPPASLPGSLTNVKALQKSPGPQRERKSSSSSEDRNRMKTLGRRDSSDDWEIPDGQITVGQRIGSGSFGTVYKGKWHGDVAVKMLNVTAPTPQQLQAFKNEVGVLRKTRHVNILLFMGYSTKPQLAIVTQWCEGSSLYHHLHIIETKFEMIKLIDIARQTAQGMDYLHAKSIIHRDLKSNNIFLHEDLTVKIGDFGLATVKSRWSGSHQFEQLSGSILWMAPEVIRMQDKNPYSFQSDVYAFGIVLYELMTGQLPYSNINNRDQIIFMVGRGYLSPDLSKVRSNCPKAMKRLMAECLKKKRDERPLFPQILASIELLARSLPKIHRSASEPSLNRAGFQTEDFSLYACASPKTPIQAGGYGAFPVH
Chain of YANK2 (Q9NY57 whole entry): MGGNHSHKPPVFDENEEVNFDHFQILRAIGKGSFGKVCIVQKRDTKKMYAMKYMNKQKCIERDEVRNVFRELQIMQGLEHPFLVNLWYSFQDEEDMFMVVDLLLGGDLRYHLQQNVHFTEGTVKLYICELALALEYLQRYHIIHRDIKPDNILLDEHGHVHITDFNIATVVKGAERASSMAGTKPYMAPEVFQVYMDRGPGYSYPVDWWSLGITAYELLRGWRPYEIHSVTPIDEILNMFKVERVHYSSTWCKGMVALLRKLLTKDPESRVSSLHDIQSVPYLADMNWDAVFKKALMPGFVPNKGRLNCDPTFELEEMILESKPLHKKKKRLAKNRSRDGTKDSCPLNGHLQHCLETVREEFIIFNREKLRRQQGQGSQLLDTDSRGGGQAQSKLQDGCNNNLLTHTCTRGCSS
Chain of ZAP70 (P43403 whole entry): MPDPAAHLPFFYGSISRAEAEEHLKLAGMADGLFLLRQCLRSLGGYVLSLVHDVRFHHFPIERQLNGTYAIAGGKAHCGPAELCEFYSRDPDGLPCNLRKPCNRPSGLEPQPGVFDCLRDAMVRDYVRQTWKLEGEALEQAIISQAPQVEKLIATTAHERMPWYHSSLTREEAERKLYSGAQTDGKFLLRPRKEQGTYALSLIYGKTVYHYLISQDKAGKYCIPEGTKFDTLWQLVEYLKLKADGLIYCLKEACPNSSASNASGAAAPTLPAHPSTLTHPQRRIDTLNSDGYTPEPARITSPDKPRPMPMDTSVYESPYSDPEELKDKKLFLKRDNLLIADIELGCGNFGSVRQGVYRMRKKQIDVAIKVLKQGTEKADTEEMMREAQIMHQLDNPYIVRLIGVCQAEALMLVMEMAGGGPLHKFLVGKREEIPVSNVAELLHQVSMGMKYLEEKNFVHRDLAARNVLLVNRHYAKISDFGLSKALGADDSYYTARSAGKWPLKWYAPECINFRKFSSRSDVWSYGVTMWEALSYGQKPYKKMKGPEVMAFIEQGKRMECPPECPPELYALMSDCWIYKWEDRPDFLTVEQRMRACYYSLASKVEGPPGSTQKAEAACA
Chain of CDK4-cyclinD3 (P11802 whole entry): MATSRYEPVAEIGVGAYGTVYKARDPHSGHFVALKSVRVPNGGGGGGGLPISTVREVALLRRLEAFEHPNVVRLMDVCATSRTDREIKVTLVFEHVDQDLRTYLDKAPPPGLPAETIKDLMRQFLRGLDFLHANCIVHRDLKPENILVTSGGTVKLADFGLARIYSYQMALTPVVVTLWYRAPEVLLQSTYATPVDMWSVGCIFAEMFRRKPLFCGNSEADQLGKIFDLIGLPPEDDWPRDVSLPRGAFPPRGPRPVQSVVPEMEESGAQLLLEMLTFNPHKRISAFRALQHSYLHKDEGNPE
Chain of CDK4-cyclinD3 (P30281 whole entry partner): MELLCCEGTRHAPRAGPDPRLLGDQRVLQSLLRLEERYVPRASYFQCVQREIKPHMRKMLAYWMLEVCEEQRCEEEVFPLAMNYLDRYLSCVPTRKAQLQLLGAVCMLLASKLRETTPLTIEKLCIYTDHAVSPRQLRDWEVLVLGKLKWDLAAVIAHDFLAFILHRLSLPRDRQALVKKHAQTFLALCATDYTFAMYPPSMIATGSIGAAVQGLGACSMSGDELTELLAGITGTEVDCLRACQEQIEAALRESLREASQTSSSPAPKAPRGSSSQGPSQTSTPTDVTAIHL

O=C1CCC(N2C(=O)c3cccc(NCCCCCCCCNC(=O)N4CC[C@H](NC5=Nc6cc(F)ccc6N(CC(F)F)c6ccc(Cl)cc65)C4)c3C2=O)C(=O)N1 (stereo partly drawn) [BJG-05-039, (3S)-3-((2-Chloro-5-(2,2-difluoroethyl)-8-fluoro-5H-dibenzo[b,e][1,4]diazepin-11-yl)amino)-N-(8-((2-(2,6-dioxopiperidin-3-yl)-1,3-dioxoisoindolin-4-yl)amino)octyl)pyrrolidine-1-carboxamide]
remaining binding at 10 µM [1]: 98%
remaining binding at 10 µM [2]: 89%
remaining binding at 10 µM [3]: 88%
remaining binding at 10 µM [4]: 80%
remaining binding at 10 µM [5]: 59%
remaining binding at 10 µM [6]: 100%
remaining binding at 10 µM [7]: 97%
remaining binding at 10 µM [8]: 100%
remaining binding at 10 µM [9]: 100%
remaining binding at 10 µM [10]: 99%
remaining binding at 10 µM [11]: 59%
remaining binding at 10 µM [12]: 88%
remaining binding at 10 µM [13]: 92%
remaining binding at 10 µM [14]: 83%
remaining binding at 10 µM [15]: 83%
remaining binding at 10 µM [16]: 83%
remaining binding at 10 µM [17]: 98%
remaining binding at 10 µM [18]: 83%
remaining binding at 10 µM [19]: 63%
remaining binding at 10 µM [20]: 99%
remaining binding at 10 µM [21]: 77%
remaining binding at 10 µM [22]: 89%
remaining binding at 10 µM [23]: 73%
remaining binding at 10 µM [24]: 100%
remaining binding at 10 µM [25]: 68%
remaining binding at 10 µM [26]: 99%
remaining binding at 10 µM [27]: 63%
remaining binding at 10 µM [28]: 78%
remaining binding at 10 µM [29]: 67%
remaining binding at 10 µM [30]: 100%
remaining binding at 10 µM [31]: 40%
remaining binding at 10 µM [32]: 57%
remaining binding at 10 µM [33]: 89%
remaining binding at 10 µM [34]: 55%
remaining binding at 10 µM [35]: 52%
remaining binding at 10 µM [36]: 100%
remaining binding at 10 µM [37]: 90%
